Source: publication PMC4126345, “Large-scale filament formation inhibits the activity of CTP synthetase” (eLife, 2014)

Experiments:
CTP synthetase (CtpS) [1] = biological target: T1, CTP synthetase (CtpS) (Escherichia coli, UniProt P0A7E5); test: CTP production (transmittance at […] nm) and light scattering of purified CtpS with DON; format: biochemical
T1 construct: gene pyrG; full-length

CTP synthetase (CtpS) [2] = biological target: T1, CTP synthetase (CtpS); test: cryo-EM difference density in the CtpS filament ([…] Å); format: binding
CTP synthetase (CtpS) [3] = biological target: T1, CTP synthetase (CtpS); test: purified enzyme turnover; ATP with UTP depolymerizes and reactivates CtpS (light scattering and activity); format: biochemical
[4] = biological target: T2, CTP synthetase (CtpS E277R) (Escherichia coli, UniProt P0A7E5, E277R); test: CTP inhibition of CTP synthesis by purified enzyme (absorbance at […] nm), […] enzyme; format: biochemical
T2 construct: gene pyrG; full-length, 6XHis tag not cleaved

CTP synthetase (CtpS) [5] = biological target: T1, CTP synthetase (CtpS); test: purified enzyme turnover to CTP; UTP with ATP depolymerizes and reactivates CtpS (light scattering and activity); format: biochemical
CTP synthetase (CtpS) [6] = biological target: T1, CTP synthetase (CtpS); test: CTP production by purified enzyme initiated by glutamine; format: biochemical

T1 sequence (P0A7E5 2-545): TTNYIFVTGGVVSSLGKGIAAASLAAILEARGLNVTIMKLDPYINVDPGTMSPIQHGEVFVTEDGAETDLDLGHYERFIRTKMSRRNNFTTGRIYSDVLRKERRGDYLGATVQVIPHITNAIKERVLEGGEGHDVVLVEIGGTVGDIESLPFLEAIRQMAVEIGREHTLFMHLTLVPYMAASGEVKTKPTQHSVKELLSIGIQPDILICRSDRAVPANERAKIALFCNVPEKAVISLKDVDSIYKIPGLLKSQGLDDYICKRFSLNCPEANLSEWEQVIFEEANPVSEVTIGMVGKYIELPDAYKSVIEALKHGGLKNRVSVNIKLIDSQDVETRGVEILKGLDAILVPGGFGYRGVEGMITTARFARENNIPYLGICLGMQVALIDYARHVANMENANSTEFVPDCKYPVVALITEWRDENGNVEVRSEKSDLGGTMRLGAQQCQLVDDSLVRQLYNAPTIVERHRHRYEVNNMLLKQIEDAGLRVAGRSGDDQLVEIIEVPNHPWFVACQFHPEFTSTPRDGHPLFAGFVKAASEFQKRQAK
T2 sequence (P0A7E5 2-545 E277R): as the sequence (P0A7E5 2-545) above, with E276R counted along it

[N-]=[N+]=CC(=O)CC[C@H](N)C(=O)O [6-Diazo-5-oxo-L-norleucine]
CTP production (transmittance at 291 nm) and light scattering of purified CtpS w (CTP synthetase (CtpS) [1]): When added to activity buffer, DON abolishes both CTP production and CtpS polymerization

Nc1ncnc2c1ncn2[C@@H]1O[C@H](COP(=O)(O)OP(=O)(O)O)[C@@H](O)[C@H]1O [ADP]
cryo-EM difference density in the CtpS filament (8.4 Å) (CTP synthetase (CtpS) [2]): Similarly strong density is found in the difference map in the positions of bound ADP.

Nc1ncnc2c1ncn2[C@@H]1O[C@H](COP(=O)(O)OP(=O)(O)OP(=O)(O)O)[C@@H](O)[C@H]1O [ATP]
purified enzyme turnover; ATP with UTP depolymerizes and reactivates CtpS (light) (CTP synthetase (CtpS) [3]): Addition of ATP and UTP depolymerized the sample.

Nc1ccn([C@@H]2O[C@H](COP(=O)(O)OP(=O)(O)OP(=O)(O)O)[C@@H](O)[C@H]2O)c(=O)n1 [CTP]
IC50 [4]: 833 µM

O=c1ccn([C@@H]2O[C@H](CO[P@@](=O)(O)O[P@@](=O)(O)OP(=O)(O)O)[C@@H](O)[C@H]2O)c(=O)[nH]1 [UTP]
purified enzyme turnover to CTP; UTP with ATP depolymerizes and reactivates CtpS (CTP synthetase (CtpS) [5]): Upon addition of these substrate nucleotides, we observed a sharp decrease in light scattering

NC(=O)CC[C@H](N)C(=O)O [glutamine]
CTP production by purified enzyme initiated by glutamine (CTP synthetase (CtpS) [6]): CTP production was then initiated by the addition of glutamine to form a complete activity buffer.
